# Assay results taken from BindingDB's records for doi:10.1124/jpet.104.074146 (Meiji Seika Kaisha, 2005).
# Columns and labels:
# Progesterone receptor = target: T1, Progesterone receptor (Homo sapiens, UniProt P06401)
# T1 sequence (P06401 whole entry): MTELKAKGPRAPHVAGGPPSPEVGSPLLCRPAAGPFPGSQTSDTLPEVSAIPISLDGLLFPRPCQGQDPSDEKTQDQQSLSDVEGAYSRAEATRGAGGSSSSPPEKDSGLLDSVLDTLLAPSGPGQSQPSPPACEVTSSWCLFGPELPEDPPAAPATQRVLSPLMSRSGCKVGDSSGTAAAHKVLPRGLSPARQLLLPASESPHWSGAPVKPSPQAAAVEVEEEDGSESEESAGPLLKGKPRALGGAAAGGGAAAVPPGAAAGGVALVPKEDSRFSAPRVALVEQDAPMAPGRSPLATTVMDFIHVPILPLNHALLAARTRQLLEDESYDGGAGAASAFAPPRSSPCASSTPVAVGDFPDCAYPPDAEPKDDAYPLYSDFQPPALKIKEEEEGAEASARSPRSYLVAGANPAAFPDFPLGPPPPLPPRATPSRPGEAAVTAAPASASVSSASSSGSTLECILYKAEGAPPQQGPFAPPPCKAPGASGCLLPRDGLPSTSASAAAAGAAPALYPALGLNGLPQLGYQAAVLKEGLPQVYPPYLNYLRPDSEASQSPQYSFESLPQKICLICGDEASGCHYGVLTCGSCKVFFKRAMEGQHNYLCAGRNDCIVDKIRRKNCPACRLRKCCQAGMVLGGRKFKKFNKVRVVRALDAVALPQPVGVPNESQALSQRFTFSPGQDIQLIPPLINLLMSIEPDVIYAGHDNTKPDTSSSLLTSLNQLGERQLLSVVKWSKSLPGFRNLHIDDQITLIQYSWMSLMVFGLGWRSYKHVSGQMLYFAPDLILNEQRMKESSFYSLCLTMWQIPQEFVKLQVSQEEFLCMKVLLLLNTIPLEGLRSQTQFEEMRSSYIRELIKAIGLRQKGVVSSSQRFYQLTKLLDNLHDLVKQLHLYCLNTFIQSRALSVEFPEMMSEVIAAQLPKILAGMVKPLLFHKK
# Glucocorticoid receptor = target: T2, Glucocorticoid receptor (Homo sapiens, UniProt P04150)
# T2 sequence (P04150 whole entry): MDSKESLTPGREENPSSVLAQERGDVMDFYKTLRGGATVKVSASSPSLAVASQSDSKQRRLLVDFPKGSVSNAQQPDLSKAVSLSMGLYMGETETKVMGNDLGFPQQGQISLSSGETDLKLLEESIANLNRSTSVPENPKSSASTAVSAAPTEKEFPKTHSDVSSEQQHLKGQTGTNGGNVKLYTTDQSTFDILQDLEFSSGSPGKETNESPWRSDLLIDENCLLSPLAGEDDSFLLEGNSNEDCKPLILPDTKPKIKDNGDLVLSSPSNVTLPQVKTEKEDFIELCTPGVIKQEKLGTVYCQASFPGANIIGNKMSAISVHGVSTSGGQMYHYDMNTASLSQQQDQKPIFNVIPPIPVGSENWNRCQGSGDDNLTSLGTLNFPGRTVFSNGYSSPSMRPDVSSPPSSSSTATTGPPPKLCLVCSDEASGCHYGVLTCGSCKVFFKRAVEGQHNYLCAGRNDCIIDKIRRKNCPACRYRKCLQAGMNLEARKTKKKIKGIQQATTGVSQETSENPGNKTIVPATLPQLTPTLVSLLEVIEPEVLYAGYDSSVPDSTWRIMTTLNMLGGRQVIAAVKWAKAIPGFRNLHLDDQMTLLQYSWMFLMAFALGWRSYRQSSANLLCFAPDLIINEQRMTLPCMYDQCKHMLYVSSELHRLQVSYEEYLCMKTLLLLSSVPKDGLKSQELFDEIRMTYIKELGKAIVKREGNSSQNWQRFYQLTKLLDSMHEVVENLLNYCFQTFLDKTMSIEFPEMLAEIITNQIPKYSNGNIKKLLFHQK
# Estrogen receptor = target: T3, Estrogen receptor (Homo sapiens, UniProt P03372)
# T3 sequence (P03372 whole entry): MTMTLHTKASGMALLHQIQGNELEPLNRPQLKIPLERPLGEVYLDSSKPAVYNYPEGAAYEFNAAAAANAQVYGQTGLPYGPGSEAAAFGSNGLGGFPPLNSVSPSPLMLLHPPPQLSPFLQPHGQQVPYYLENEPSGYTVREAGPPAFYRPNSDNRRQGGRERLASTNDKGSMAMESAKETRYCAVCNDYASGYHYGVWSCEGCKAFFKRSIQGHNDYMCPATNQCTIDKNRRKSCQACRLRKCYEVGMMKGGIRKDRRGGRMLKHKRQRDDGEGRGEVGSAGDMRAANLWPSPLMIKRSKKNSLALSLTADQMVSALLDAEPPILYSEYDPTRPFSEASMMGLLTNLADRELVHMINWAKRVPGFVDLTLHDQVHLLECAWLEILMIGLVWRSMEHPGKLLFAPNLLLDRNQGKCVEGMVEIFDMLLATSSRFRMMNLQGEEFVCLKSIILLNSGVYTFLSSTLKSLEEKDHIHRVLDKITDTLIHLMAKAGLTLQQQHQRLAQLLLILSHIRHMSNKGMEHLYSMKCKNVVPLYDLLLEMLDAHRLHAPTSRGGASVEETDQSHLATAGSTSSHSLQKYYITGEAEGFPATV
# Androgen receptor = target: T4, Androgen receptor (Rattus norvegicus, UniProt P15207)
# T4 sequence (P15207 whole entry): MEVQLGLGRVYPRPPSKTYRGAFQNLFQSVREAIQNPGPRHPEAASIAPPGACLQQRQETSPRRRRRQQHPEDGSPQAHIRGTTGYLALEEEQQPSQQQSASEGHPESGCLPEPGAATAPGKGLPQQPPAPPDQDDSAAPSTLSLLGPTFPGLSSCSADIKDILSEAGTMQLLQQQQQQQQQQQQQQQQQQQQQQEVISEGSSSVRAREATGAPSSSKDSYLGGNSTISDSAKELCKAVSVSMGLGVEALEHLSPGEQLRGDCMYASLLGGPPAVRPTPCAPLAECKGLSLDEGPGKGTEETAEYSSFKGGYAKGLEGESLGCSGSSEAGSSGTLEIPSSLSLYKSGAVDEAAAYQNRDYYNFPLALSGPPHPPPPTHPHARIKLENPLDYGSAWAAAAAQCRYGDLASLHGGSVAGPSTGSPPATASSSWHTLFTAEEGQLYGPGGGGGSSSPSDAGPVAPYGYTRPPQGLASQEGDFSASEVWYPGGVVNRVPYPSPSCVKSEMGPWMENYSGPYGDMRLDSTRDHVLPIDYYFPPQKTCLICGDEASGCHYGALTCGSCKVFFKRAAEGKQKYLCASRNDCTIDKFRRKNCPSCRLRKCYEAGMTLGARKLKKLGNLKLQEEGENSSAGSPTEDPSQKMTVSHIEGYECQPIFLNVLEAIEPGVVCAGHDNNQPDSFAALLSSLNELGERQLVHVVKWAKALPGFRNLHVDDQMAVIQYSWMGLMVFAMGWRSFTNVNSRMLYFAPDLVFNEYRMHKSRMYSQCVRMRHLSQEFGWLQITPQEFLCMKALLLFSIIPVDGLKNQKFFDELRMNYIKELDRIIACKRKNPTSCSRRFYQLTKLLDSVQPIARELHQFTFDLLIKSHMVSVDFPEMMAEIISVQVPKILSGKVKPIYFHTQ
Compound,IC50 (Progesterone receptor) [nM],Ki (Glucocorticoid receptor) [nM],IC50 (Estrogen receptor) [nM],IC50 (Androgen receptor) [nM]
COC1C=C2C=C3C(=C(C)C(=O)N3C)[C@@H](C)[C@]2(C)CC1OC(=O)N(C)C (stereo partly drawn) [CP8816],25,> 5000,> 10000,
CNC(=O)OC1C[C@]2(C)C(=CC1O)C=C1C(=C(C)C(=O)N1C)[C@H]2C (stereo partly drawn) [CP8863],40,> 10000,> 10000,9700
CC(=O)OC1(C(C)=O)CCC2C3CC(C)C4=CC(=O)CCC4(C)C3CCC21C (stereo not drawn) [NSC_4042],,43,,
